Laboratory results as given in patent US20250276038A1, “HISTATIN COMBINATIONS AND METHODS FOR TREATING OR INHIBITING CELL LOSS” (VISUS THERAPEUTICS, INC., priority 2021, published 2025).
Where no end group is shown, it is not given here.

Experiments:
[1] = system: stromal keratocytes; experiment: Loss of stromal keratocytes after surgical keratectomy (in vivo confocal corneal tomography, keratocyte counts); parameters: species or system New Zealand White rabbits; conditions: for Percent keratocyte reduction from baseline: 35 μl topical TID, 80 μM histatin-1 (+100 μM peptide 6 in combination), mean±SD
Method: Twenty-four New Zealand White rabbits, approximately 4-6 months old and weighing 2-3 kg were divided into 3 groups of 8 animals and dosed topically three times per day (TID) for 28 days with either 35 μl Phosphate Buffered Saline (PBS), 35 μl 80 μM histatin-1 (Hst-1), or 35 μl 80 μM histatin-1+100 μM peptide 6 (P6) combination following unilateral surgical keratectomy procedure.
(§1) Animals were administered buprenorphine (0.01-0.05 mg/kg, SC) for pain control just prior to the procedure. A second dose of buprenorphine (0.01-0.05 mg/kg, SC) was administered in the evening, and then administered on an as needed basis. Animals was induced for surgery with a ketamine/xylazine cocktail (50 mg/kg ketamine and 10 mg/kg xylazine IM); anesthesia was maintained with isoflurane delivered in oxygen through a mask as needed. Following induction of anesthesia, 5% betadine solution, on autoclaved sterile gauze, was used to clean the periocular (eyelids) area of the surgical eye. Betadine was then used to irrigate the ocular surface and conjunctival cul-de-sac, which was then thoroughly irrigated with sterile eyewash. One drop each of 0.5% proparacaine HCl and 10% phenylephrine HCl, was then applied to the ocular surface for ocular anesthesia and mydriasis, respectively. The rabbit was positioned under an operating microscope and an eyelid speculum was affixed. An adjustable, 8 mm corneal vacuum trephine (Moria Surgical, Antony, France) was used to create a central corneal defect of approximately 10-25% stromal depth (approximately 100 μm). The trephined section of the cornea was removed, and the wound left open. Immediately following surgery, a single dose of topical antibiotic (Neomycin Polymyxin B Sulfates Gramicidin ophthalmic solution) was applied.
(§2) The corneas of anesthetized animals were imaged with a Heidelberg Retinal Tomograph fitted with a Rostock Corneal Module (HRT III RCM). This compact ophthalmic device uses confocal scanning laser microscopy to provide high-resolution en-face images of cornea cells and structures, including keratocytes subpopulations and the corneal sub-basal nerve plexus. Central cornea confocal scans from the epithelium to the endothelium were done and optical stacks of 400 μm×400 μm and 2 μm thick sections were generated and electronically stored for analysis.
A sampling region of the stack of optical scans was selected that corresponded to approximately 150 μm above the endothelium. This was done by counting 75 images up from the endothelium and selecting 5 adjacent images to serve as replicates. Keratocytes presented as reflective distinct irregular shaped objects. […] An unpaired Student's T test was used to compare the histatin-1 and the histatin-1+peptide 6 groups; p<0.05 was considered statistically significant.

[2] = system: corneal endothelial cells; experiment: Corneal endothelial cell density after surgical anterior keratectomy (corneal tomography); assay type: in vivo, New Zealand White rabbits; conditions: 35 μl 80 μM topical TID; for Percent endothelial cell density reduction from baseline: mean±SD
Method: Sixteen New Zealand White rabbits, approximately 4-6 months old and weighing 2-3 kg were divided into 2 groups of 8 animals and dosed topically three times per day (TID) for 28 days with either 35 μl phosphate buffered saline (PBS) or 35 μl 80 μM histatin-1 following unilateral surgical keratectomy procedure.
as §1, with “Animals were” for “Animals was”, “The rabbits were” for “The rabbit was”
as §2, with “including corneal sub-basal nerve plexus,” for “including”, “endothelial cell layer.” for “sub-basal nerve plexus.”, “400×400” for “400 μm×400”
The optical slice with the endothelium layer having the best resolution and largest coverage was selected. Of the 16 animals in the study, only 14 animals had scans with usable endothelial cell layers at 1 or more time points, and a maximum of only 4 usable scans at any single time point. The HRT III cell counting software was used to adjust image contrast and brightness to enhance manual cell counting within a selected region of interest (ROI). ROIs were >0.005 mm^2. Number of cells within a ROI ranged from 118-287. Partial cells (>½) at the edges of the ROI were counted only on 2 sides at right angles. The software computed endothelial cell density as cells/mm^2 based on manual counts in the selected ROI. Data are presented as mean±standard deviation cells/mm^2. An unpaired Student's T test was used to compare the PBS and histatin-1 groups at each follow-up time point; p<0.05 was considered statistically significant.

[3] = system: corneal nerves; experiment: Corneal nerve regeneration after surgical anterior keratectomy (Tuj1 wholemount immunohistochemistry); assay type: in vivo, New Zealand White rabbits; conditions: Day 28; 35 μl topical TID, 80 μM histatin-1 (+100 μM peptide 6); mean±SD
Method: Twelve New Zealand White rabbits, approximately 4-6 months old and weighing 2-3 kg were divided into 3 groups of 4 animals and dosed topically three times per day (TID) for 28 days with either 35 μl phosphate buffered saline (PBS), 35 μl 80 μM histatin-1 or 35 μl of 80 μM histatin-1+100 μM peptide 6 following a unilateral surgical keratectomy procedure.
Animals were administered buprenorphine (0.01-0.05 mg/kg, SC) for pain control just prior to the procedure. A second dose of buprenorphine (0.01-0.05 mg/kg, SC) was administered in the evening, and then administered on an as needed basis. Animals were induced for surgery with a ketamine/xylazine cocktail (50 mg/kg ketamine and 10 mg/kg xylazine IM); anesthesia was maintained with isoflurane delivered in oxygen through a mask as needed. Following induction of anesthesia, 5% betadine solution, on autoclaved sterile gauze, was used to clean the periocular (eyelids) area of the surgical eye. […]
While corneas were incubating in their final wash, slides with imaging spacers were prepared. A 0.36, 0.6 mm or combination of the two adhesive imaging spacers (Grace Biolabs cat #SA-S-3L; custom cut to 22×40 mm rectangle with an oblong window cut out) was adhered to a glass slide; spacer thickness was determined by corneal thickness measured on the day of necropsy for treated eyes; control corneas utilized a 0.36 mm spacer. […]

[4] = system: endothelial cells in human non-surgical cornea buttons; experiment: Corneal button preservation under stressed storage conditions (trypan blue staining); assay type: cell-based; conditions: 1 μM in standard cornea storage media
Method: The effect of 1 μM histatin-1 formulated in Life4° C.™ or Optisol™ Corneal Storage Medium was assessed on the preservation of endothelial cells in 9 pairs of human non-surgical cornea buttons stored under stressed conditions. The tissues were individually stored in 20 mL Bausch & Lomb™ Cornea Tissue Viewing Chambers at room temperature (24±2° C.) for 6 to 14 days, preceded by storage at 4° C. for 3 days. All doners were White/Caucasian origin. The median age was 64 years and ranged from 14 to 73. The amount of time from the time of death to the preservation of the corneas ranged from 4 hours 15 mins to 20 hours 48 mins. Endothelial cell counts at the time of tissue harvest was 2222±240 cells/mm^2. Histatin-1 was added every other day to the right eye (OD) in a volume of 200 μL in an amount sufficient to maintain a concentration of 1 μM. Left eyes (OS) were given an equal volume of PBS. Endothelial cell viability was assessed by trypan blue staining as non-viable area expressed as a percentage of 80% of the central cornea. Briefly, cornea buttons were transferred from storage chambers to viewing wells (Barron Punch Cutting Block), endothelium side up, and 0.06% trypan blue in a volume sufficient to cover the endothelial layer limbus to limbus was applied and left for 90 secs, and then rinsed twice with PBS. […]

DSHEKRHHGYRRKFHEKHHSHREFPFYGDYGSNYLYDN [histatin-1]
Complete recovery of keratocytes by Day ([1]; 35 μl topical TID after keratectomy): ≤ 28 days | Percent keratocyte reduction from baseline ([1]; Day 7): 40.2±3.3% | Percent keratocyte reduction from baseline ([1]; Day 10): 37.5±2.4% | Percent keratocyte reduction from baseline ([1]; Day 14): 32.7±15.3% | Percent keratocyte reduction from baseline ([1]; Day 21): 26.5±6.0% | Percent keratocyte reduction from baseline ([1]; Day 28): 2.7±13% | Recovery and apparent normalization of endothelial cell density starting by Day [2]: ≤ 10 days | Percent endothelial cell density reduction from baseline ([2]; Day 7): 15.1±2.8% | Percent endothelial cell density reduction from baseline ([2]; Day 10): 1.1±9.1% | Percent endothelial cell density reduction from baseline ([2]; Day 14): −0.2±5.9% | Percent endothelial cell density reduction from baseline ([2]; Day 21): 4.5±7.8% | Percent endothelial cell density reduction from baseline ([2]; Day 28): 7.4±2.8% | Area of nerve regeneration [3]: 26.1±7 mm^2 | Area of nerve regeneration as percent of initial 8 mm lesion area (50.3 mm^2) [3]: 51.9±14% | Reduction of stained area in the endothelial area versus PBS [4]: 45%
